US12492356B2, “Oxa-sandalwood-type fragrance compounds” (SYMRISE AG, priority 2020, dated 2025)

Tested on: panel of at least four experts
Experiment: Odor detection threshold (ODT), olfactometer TO8, DIN standard EN 13725
Details: for ODT / ODT in air: olfactometer TO8, panel of at least four experts, DIN EN 13725
Description: The odor detection threshold (in the following abbreviated as “ODT”) is defined as the lowest concentration of a certain odorous compound (gaseous, sensorially active substance) which is perceivable and thus which can be distinguished with certainty from a blank reference under standard conditions. Generally, lower ODT values are preferred as a lower amount of the fragrance compound is required in order to a achieve strong odor impressions and thus lower amounts can be used for perfuming. However, as the threshold depends on various factors such as concentration, solubility, partition coefficient between air and the olfactory active substance, vapor pressure, polarity, molecular mass etc., predictions referring to the ODT of a substance are difficult to make. Table 2 indicates the ODT values of preferred embodiment in comparison to commercially available Brahmanol® (Symrise AG) and Sandranol® (Symrise AG). The ODT was measured using an olfactometer TO8 and a panel of at least four experts according to DIN standard EN 13725. According to the DIN standard EN 13725, the odor threshold value is defined as the concentration of an odorous substance at which, under defined test conditions, the probability of perceiving the sample is 0.5, i.e. 50% of the test persons indicate an odor perception. Thereby, the quantitative ODT value is given as the ratio of volume fractions of an odor-free comparison matrix, such as air, to the examined matrix at which the odor could just be perceived, i.e. a dilution factor.

| Structure (SMILES) | ODT | ODT in air [ng/L] | ODT value lower by a factor (comparator not named in the sentence (commercial analogue)) | threshold value reduced by the factor (in comparison to Brahmanol) (compared with Brahmanol) |
| --- | --- | --- | --- | --- |
| CC1=CCC(CCC(C)CO)C1(C)C (centres unmarked) [Brahmanol ®, 2-methyl-4-(2′,2′,3′-trimethyl-3′-cyclopenten-1′-yl)-butan-1-ol, reference compound] | 0.0173 ppm (v/v) | 6.9 |  |  |
| COCC1=CCC(C/C=C(\C)CO)C1(C)C (centres unmarked) [Compound 1, 4-[3-(Methoxymethyl)-2,2-dimethyl-cyclopent-3-en-1-yl]-2-methyl-but-2-en-1-ol] | 0.0089 ppm (v/v) | 7.1 |  |  |
| COCC1=CCC(CCC(C)CO)C1(C)C (centres unmarked) [Compound 2, 4-[3-(Methoxymethyl)-2,2-dimethyl-cyclopent-3-en-1-yl]-2-methyl-butan-1-ol] | 0.00285 ppm (v/v) | 7.6 | 3 |  |
| CC/C(=C\CC1CC=C(COC)C1(C)C)CO (centres unmarked) [Compound 3, 2-Ethyl-4-[3-(methoxymethyl)-2,2-dimethyl-cyclopent-3-en-1-yl]but-2-en-1-ol] | 0.0019 ppm (v/v) | 7.7 |  | about 10 |
| C=C(CC(C)CO)C1CC=C(COC)C1(C)C (centres unmarked) [Compound 4, 4-[3-(Methoxymethyl)-2,2-dimethyl-cyclopent-3-en-1-yl]-2-methyl-pent-4-en-1-ol] | 0.0025 ppm (v/v) | 7.6 |  |  |
| CC/C(=C\CC1CC=C(C)C1(C)C)CO (centres unmarked) [Sandranol ®, 2-ethyl-4-(2′,2′,3′-trimethyl-3′-cyclopenten-1′-yl)-2-buten-1-ol, reference compound] | 0.000205 ppm (v/v) | 7.6 |  |  |
